Experimental data reported in PubChem BioAssay (NCI).
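Assay format: 96-well plates, 48-hour exposure. TGI: concentration producing complete growth inhibition.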

Columns and labels:
Test in all cases: NCI anticancer screen, dose series, 48 h
786-0 renal = tested on: 786-0 renal
A498 renal = tested on: A498 renal
A549 NSCLC = tested on: A549 NSCLC
ACHN renal = tested on: ACHN renal
BT-549 breast = tested on: BT-549 breast
CAKI-1 renal = tested on: CAKI-1 renal
CCRF-CEM leukemia = tested on: CCRF-CEM leukemia
COLO 205 colon = tested on: COLO 205 colon
DU-145 prostate = tested on: DU-145 prostate
EKVX NSCLC = tested on: EKVX NSCLC
HCC-2998 colon = tested on: HCC-2998 colon
HCT-116 colon = tested on: HCT-116 colon
HCT-15 colon = tested on: HCT-15 colon
HL-60(TB) leukemia = tested on: HL-60(TB) leukemia
HOP-62 NSCLC = tested on: HOP-62 NSCLC
HOP-92 NSCLC = tested on: HOP-92 NSCLC
HS 578T breast = tested on: HS 578T breast
HT29 colon = tested on: HT29 colon
IGROV1 ovarian = tested on: IGROV1 ovarian
K-562 leukemia = tested on: K-562 leukemia
KM12 colon = tested on: KM12 colon
LOX IMVI melanoma = tested on: LOX IMVI melanoma
M14 melanoma = tested on: M14 melanoma
MCF7 breast = tested on: MCF7 breast
MDA-MB-231 breast = tested on: MDA-MB-231 breast
MDA-MB-435 = tested on: MDA-MB-435
MDA-N = tested on: MDA-N
MOLT-4 leukemia = tested on: MOLT-4 leukemia
NCI-H226 lung = tested on: NCI-H226 lung
NCI-H23 lung = tested on: NCI-H23 lung
NCI-H460 lung = tested on: NCI-H460 lung
NCI/ADR-RES ovarian = tested on: NCI/ADR-RES ovarian
OVCAR-3 ovarian = tested on: OVCAR-3 ovarian
OVCAR-4 ovarian = tested on: OVCAR-4 ovarian
OVCAR-5 ovarian = tested on: OVCAR-5 ovarian
OVCAR-8 ovarian = tested on: OVCAR-8 ovarian
PC-3 prostate = tested on: PC-3 prostate
RPMI-8226 leukemia = tested on: RPMI-8226 leukemia
RXF 393 renal = tested on: RXF 393 renal
SF-268 CNS = tested on: SF-268 CNS
SF-295 CNS = tested on: SF-295 CNS
SF-539 CNS = tested on: SF-539 CNS
SK-MEL-2 melanoma = tested on: SK-MEL-2 melanoma
SK-MEL-5 melanoma = tested on: SK-MEL-5 melanoma
SK-OV-3 ovarian = tested on: SK-OV-3 ovarian
SN12C renal = tested on: SN12C renal
SNB-19 CNS = tested on: SNB-19 CNS
SNB-75 CNS = tested on: SNB-75 CNS
SR leukemia = tested on: SR leukemia
SW-620 colon = tested on: SW-620 colon
T-47D breast = tested on: T-47D breast
TK-10 renal = tested on: TK-10 renal
U251 CNS = tested on: U251 CNS
UACC-257 melanoma = tested on: UACC-257 melanoma
UACC-62 melanoma = tested on: UACC-62 melanoma
UO-31 renal = tested on: UO-31 renal
NCI-H522 lung = tested on: NCI-H522 lung
SK-MEL-28 melanoma = tested on: SK-MEL-28 melanoma
MALME-3M melanoma = tested on: MALME-3M melanoma

## Cn1c(-c2ccccc2)cc(-c2cccs2)c1-c1ccsc1
786-0 renal
  TGI: > 100 µM
A498 renal
  TGI: > 100 µM
A549 NSCLC
  TGI: > 100 µM
ACHN renal
  TGI: > 100 µM
BT-549 breast
  TGI: > 100 µM
CAKI-1 renal
  TGI: > 100 µM
CCRF-CEM leukemia
  TGI: > 100 µM
COLO 205 colon
  TGI: > 100 µM
DU-145 prostate
  TGI: > 100 µM
EKVX NSCLC
  TGI: > 100 µM
HCC-2998 colon
  TGI: > 100 µM
HCT-116 colon
  TGI: > 100 µM
HCT-15 colon
  TGI: > 100 µM
HL-60(TB) leukemia
  TGI: > 100 µM
HOP-62 NSCLC
  TGI: > 100 µM
HOP-92 NSCLC
  TGI: > 100 µM
HS 578T breast
  TGI: > 100 µM
HT29 colon
  TGI: > 100 µM
IGROV1 ovarian
  TGI: > 100 µM
K-562 leukemia
  TGI: > 100 µM
KM12 colon
  TGI: > 100 µM
LOX IMVI melanoma
  TGI: > 100 µM
M14 melanoma
  TGI: > 100 µM
MCF7 breast
  TGI: > 100 µM
MDA-MB-231 breast
  TGI: > 100 µM
MDA-MB-435
  TGI: > 100 µM
MDA-N
  TGI: > 100 µM
MOLT-4 leukemia
  TGI: > 100 µM
NCI-H226 lung
  TGI: > 100 µM
NCI-H23 lung
  TGI: > 100 µM
NCI-H460 lung
  TGI: > 100 µM
NCI/ADR-RES ovarian
  TGI: > 100 µM
OVCAR-3 ovarian
  TGI: > 100 µM
OVCAR-4 ovarian
  TGI: > 100 µM
OVCAR-5 ovarian
  TGI: > 100 µM
OVCAR-8 ovarian
  TGI: > 100 µM
PC-3 prostate
  TGI: > 100 µM
RPMI-8226 leukemia
  TGI: > 100 µM
RXF 393 renal
  TGI: > 100 µM
SF-268 CNS
  TGI: > 100 µM
SF-295 CNS
  TGI: > 100 µM
SF-539 CNS
  TGI: > 100 µM
SK-MEL-2 melanoma
  TGI: > 100 µM
SK-MEL-5 melanoma
  TGI: > 100 µM
SK-OV-3 ovarian
  TGI: > 100 µM
SN12C renal
  TGI: > 100 µM
SNB-19 CNS
  TGI: > 100 µM
SNB-75 CNS
  TGI: > 100 µM
SR leukemia
  TGI: > 100 µM
SW-620 colon
  TGI: > 100 µM
T-47D breast
  TGI: > 100 µM
TK-10 renal
  TGI: > 100 µM
U251 CNS
  TGI: > 100 µM
UACC-257 melanoma
  TGI: > 100 µM
UACC-62 melanoma
  TGI: > 100 µM
UO-31 renal
  TGI: > 100 µM

## Cc1c(C(=O)O)n2c(C)nnc2c2ccccc12
786-0 renal
  TGI: > 100 µM
A498 renal
  TGI: > 100 µM
A549 NSCLC
  TGI: > 100 µM
ACHN renal
  TGI: > 100 µM
BT-549 breast
  TGI: > 100 µM
CAKI-1 renal
  TGI: > 100 µM
CCRF-CEM leukemia
  TGI: > 100 µM
COLO 205 colon
  TGI: > 100 µM
DU-145 prostate
  TGI: > 100 µM
EKVX NSCLC
  TGI: > 100 µM
HCC-2998 colon
  TGI: > 100 µM
HCT-116 colon
  TGI: > 100 µM
HCT-15 colon
  TGI: > 100 µM
HOP-62 NSCLC
  TGI: > 100 µM
HOP-92 NSCLC
  TGI: > 100 µM
HS 578T breast
  TGI: > 100 µM
HT29 colon
  TGI: > 100 µM
IGROV1 ovarian
  TGI: > 100 µM
K-562 leukemia
  TGI: > 100 µM
KM12 colon
  TGI: > 100 µM
LOX IMVI melanoma
  TGI: > 100 µM
M14 melanoma
  TGI: > 100 µM
MCF7 breast
  TGI: > 100 µM
MDA-MB-231 breast
  TGI: > 100 µM
MDA-MB-435
  TGI: > 100 µM
MDA-N
  TGI: > 100 µM
MOLT-4 leukemia
  TGI: > 100 µM
NCI-H226 lung
  TGI: > 100 µM
NCI-H23 lung
  TGI: > 100 µM
NCI-H460 lung
  TGI: > 100 µM
NCI-H522 lung
  TGI: > 100 µM
NCI/ADR-RES ovarian
  TGI: > 100 µM
OVCAR-3 ovarian
  TGI: > 100 µM
OVCAR-4 ovarian
  TGI: > 100 µM
OVCAR-5 ovarian
  TGI: > 100 µM
OVCAR-8 ovarian
  TGI: > 100 µM
PC-3 prostate
  TGI: > 100 µM
RXF 393 renal
  TGI: > 100 µM
SF-268 CNS
  TGI: > 100 µM
SF-295 CNS
  TGI: > 100 µM
SF-539 CNS
  TGI: > 100 µM
SK-MEL-2 melanoma
  TGI: > 100 µM
SK-MEL-28 melanoma
  TGI: > 100 µM
SK-MEL-5 melanoma
  TGI: > 100 µM
SK-OV-3 ovarian
  TGI: > 100 µM
SN12C renal
  TGI: > 100 µM
SNB-75 CNS
  TGI: > 100 µM
SR leukemia
  TGI: > 100 µM
SW-620 colon
  TGI: > 100 µM
T-47D breast
  TGI: > 100 µM
TK-10 renal
  TGI: > 100 µM
U251 CNS
  TGI: > 100 µM
UACC-257 melanoma
  TGI: > 100 µM
UACC-62 melanoma
  TGI: > 100 µM
UO-31 renal
  TGI: > 100 µM

## O=c1c(=O)c2cscc2c1=O
786-0 renal
  TGI: 10.1 µM
A498 renal
  TGI: > 25 µM
A549 NSCLC
  TGI: > 25 µM
ACHN renal
  TGI: 8.37 µM
BT-549 breast
  TGI: 8.72 µM
CAKI-1 renal
  TGI: 8.49 µM
COLO 205 colon
  TGI: 8.61 µM
DU-145 prostate
  TGI: 11.4 µM
EKVX NSCLC
  TGI: 10.7 µM
HCC-2998 colon
  TGI: 6.44 µM
HCT-116 colon
  TGI: 9.66 µM
HCT-15 colon
  TGI: 14.1 µM
HOP-62 NSCLC
  TGI: 10.8 µM
HOP-92 NSCLC
  TGI: 11.2 µM
HS 578T breast
  TGI: > 25 µM
HT29 colon
  TGI: 10.6 µM
IGROV1 ovarian
  TGI: 8.4 µM
K-562 leukemia
  TGI: 6.5 µM
KM12 colon
  TGI: 12.7 µM
LOX IMVI melanoma
  TGI: 10 µM
M14 melanoma
  TGI: 8.85 µM
MALME-3M melanoma
  TGI: 8.39 µM
MCF7 breast
  TGI: 15.3 µM
MDA-MB-231 breast
  TGI: 10 µM
MDA-MB-435
  TGI: 9.85 µM
MDA-N
  TGI: 9.72 µM
MOLT-4 leukemia
  TGI: 10 µM
NCI-H226 lung
  TGI: 10.5 µM
NCI-H23 lung
  TGI: 12.3 µM
NCI-H460 lung
  TGI: 23.3 µM
NCI/ADR-RES ovarian
  TGI: > 25 µM
OVCAR-3 ovarian
  TGI: 15.1 µM
OVCAR-4 ovarian
  TGI: 11.1 µM
OVCAR-5 ovarian
  TGI: 9.61 µM
OVCAR-8 ovarian
  TGI: 16.4 µM
PC-3 prostate
  TGI: 8.6 µM
RPMI-8226 leukemia
  TGI: 12.1 µM
RXF 393 renal
  TGI: 9.2 µM
SF-268 CNS
  TGI: 8.82 µM
SF-295 CNS
  TGI: > 25 µM
SF-539 CNS
  TGI: 9.07 µM
SK-MEL-2 melanoma
  TGI: 9.31 µM
SK-MEL-28 melanoma
  TGI: 9.37 µM
SK-MEL-5 melanoma
  TGI: 7.89 µM
SK-OV-3 ovarian
  TGI: > 25 µM
SN12C renal
  TGI: 13.3 µM
SNB-19 CNS
  TGI: 15.2 µM
SNB-75 CNS
  TGI: 8.37 µM
SR leukemia
  TGI: 1.1 µM
SW-620 colon
  TGI: 11.2 µM
T-47D breast
  TGI: 11.8 µM
TK-10 renal
  TGI: 8.04 µM
U251 CNS
  TGI: 9.19 µM
UACC-257 melanoma
  TGI: 7.96 µM
UACC-62 melanoma
  TGI: 8.75 µM
UO-31 renal
  TGI: 9.6 µM
